This note sets out measurements from patent US4738979A, “α2 -blocking derivatives of imidazole” (G. D. Searle & Co., priority 1985, dated 1988).

In assay [1] the test system is bicuculline-induced tonic extension in mice. The experiment in a line: protection against bicuculline-induced tonic extension in mice. The class given is in vivo. To be noted: Mus musculus, iv, 3 hours prior to bicuculline 0.7 mg/kg i.v., read-out: Anticonvulsive effect (versus Bicuculline) (% Protection). The procedure: In the second study the anti-convulsant effect of the compounds of the present invention was examined in two seizure models; bicuculline-induced tonic extension in mice and 3-mercaptopropionic acid (3-MPA)-induced tonic extension in mice.
In the bicuculline study, the ability of the compounds of the present invention to protect against tonic extension (involving rigidity) was evaluated as follows. Each test compound was administered to a group of ten mice at a dose of 10 mg/kg, 3 hours prior to the i.v. administration of bicuculline (0.7 mg/kg). Anticonvulsant activity in this test is expressed as percentage of animals tested. The results are given in Table II, column 6, and indicate that several compounds display significant anticonvulsive activity in this test. The anticonvulsant effect of the compounds has also been tested with respect to the tonic extension induced by 3-mercaptopropionic acid (120 mg/kg subcutaneously) in mice.

For assay [2], the system named is α1 -adrenergic receptors. The experiment in a line: binding to α1-adrenergic receptors on rat brain homogenates (3H-WB 4101). Conditions: 1.6 nM 3H-WB 4101. The method in brief:
(§1)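 Rat brain homogenate competition binding: α1 with 1.6 nM ³H-WB 4101, α2 with 0.7 nM ³H-p-aminoclonidine; nonspecific binding defined by 1,000 nM phentolamine. Values are percent inhibition of specific binding at 10^-7 M compound.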

The target of assay [3] is T1, α2 -adrenergic receptors (Cavia porcellus, UniProt Q60474).
T1 construct: from tissue; host or cells: isolated guinea pig ileum
T1 sequence (Q60474 1-464): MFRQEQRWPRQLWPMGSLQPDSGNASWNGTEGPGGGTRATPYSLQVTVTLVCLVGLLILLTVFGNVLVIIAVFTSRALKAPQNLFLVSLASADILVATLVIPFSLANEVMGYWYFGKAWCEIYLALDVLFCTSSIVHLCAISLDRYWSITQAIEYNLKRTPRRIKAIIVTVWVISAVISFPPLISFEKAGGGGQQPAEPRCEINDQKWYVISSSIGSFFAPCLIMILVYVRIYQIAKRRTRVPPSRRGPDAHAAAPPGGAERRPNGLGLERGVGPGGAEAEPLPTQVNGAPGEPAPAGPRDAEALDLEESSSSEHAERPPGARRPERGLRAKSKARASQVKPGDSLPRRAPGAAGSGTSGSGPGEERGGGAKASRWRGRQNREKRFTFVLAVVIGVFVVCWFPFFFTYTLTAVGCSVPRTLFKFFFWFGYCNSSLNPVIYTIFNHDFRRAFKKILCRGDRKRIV
The experiment in a line: α2 antagonist and α2 agonist activity in isolated guinea pig ileum (clonidine). Conditions: for EC50: 50% of maximum inhibition obtained with clonidine, read-out: α2 Agonist Activity (-log ED50) (converted); for Kb: versus clonidine, read-out: α2 Antagonist Activity (pA2) (converted). As for the experimental part: The α2 antagonist and α2 agonist activity of the compounds according to the invention was determined upon isolated organs according to a model described by G. M. Drews, Br. J. Pharmaco., 64, 293-300 (1978).
This model is based upon the principle that the stimulation of the cholinergic nervous transmissions of the guinea pig ileum causes the liberation of acetyl choline, which in turn causes contractions of the ileum.
The stimulation of the α2 -adrenergic receptors inhibits the activity of the cholinergic nerve and consequently reduces all response resulting from a timulation of the latter. Thus the contractions of the ileum induced by electric stimulation of the tissue are inhibited by clonidine, an α2 agonist, in proportion to the dose. This inhibition is specifically displaced by the α2 antagonists and not by the α1 antagonists.
The method utilized can be summarized as follows: three dose-response curves to clonidine are established at an interval of 60 minutes. Two concentrations of the product to be tested are added successively 10 minutes before the realization of the second and third clonidine curves. Next, after washing, a dose-response curve is established with the product to be tested.
The dose-response curves are calculated as a percentage of the maximum inhibition obtained for the first curve. In this system the products having an α2 antagonist activity displace the dose-response curve to clonidine. The α2 antagonist activity, expressed in pA2 value, shown in column 4, is calculated according to J. M. Van Rossum, Arch. Int. Pharmacodyn., 143, 299-300 (1963).
A reduction of the contractions induced by the tested product alone indicates an α2 agonist effect. This activity is expressed in--log ED50 (the--logarithm of the concentration of the product giving 50% of the maximum inhibition obtained with clonidine).
The higher the pA2 value, the higher the α2 antagonist activity; the higher the--log ED50 value (i.e., the pA2 agonist activity), the higher the α2 agonist activity.

Assay [4] concerns the target T2, α2 -adrenergic receptors (Rattus norvegicus, UniProt P22909).
T2 construct: from tissue; host or cells: rat brain homogenates
T2 sequence (P22909 1-465): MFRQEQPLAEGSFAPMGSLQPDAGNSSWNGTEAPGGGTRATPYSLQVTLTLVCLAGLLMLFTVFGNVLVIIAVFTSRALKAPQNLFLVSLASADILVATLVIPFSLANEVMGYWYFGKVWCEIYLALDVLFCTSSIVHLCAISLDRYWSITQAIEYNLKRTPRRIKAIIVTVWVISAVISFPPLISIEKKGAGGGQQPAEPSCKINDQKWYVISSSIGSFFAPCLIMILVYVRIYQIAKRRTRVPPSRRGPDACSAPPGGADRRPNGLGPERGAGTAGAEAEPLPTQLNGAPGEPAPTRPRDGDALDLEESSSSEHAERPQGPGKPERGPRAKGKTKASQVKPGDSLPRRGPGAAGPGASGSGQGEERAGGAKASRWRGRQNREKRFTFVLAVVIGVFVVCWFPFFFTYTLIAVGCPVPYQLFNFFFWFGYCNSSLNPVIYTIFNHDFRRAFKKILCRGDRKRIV
The experiment in a line: binding to α2-adrenergic receptors on rat brain homogenates (3H-p. aminoclonidine). To be noted: 10^-7 M; for inhibition at 0.1 µM: rat brain homogenates, 0.7 nM 3H-p. aminoclonidine, read-out: % Inhibition of the Specific Binding at 10^-7 M for α2 Recep.; for affinity for α2 receptors (in words): in vitro binding assay. The gist of the method:
as §1

Where only a bound is given, the exact number is not on record here.

Consider `CC(c1c[nH]cn1)C(c1ccccc1)c1ccccc1` (centres unmarked) [Compound 4], for which the responders at 10 mg/kg in assay [1] is 40%. Moreover, in assay [2], the “% Inhibition of the Specific Binding at 10^-7 M for α1 Recep.” value (from here on “% Inhibition of the Specific Binding”) was 4%. Also, in assay [3], the EC50 was above 3160 nM and the Kb is 316 nM. Besides, the inhibition at 0.1 µM in assay [4] was determined as 5%.

Take `Cc1ccccc1C(Cc1c[nH]cn1)c1ccccc1` (centres unmarked) [Compound 12]: in assay [1], the responders at 10 mg/kg is 50%. For the same compound, the “% Inhibition of the Specific Binding” value in assay [2] is 0%. In assay [3], the EC50 is 3980 nM and the Kb was 12.6 nM. For the same compound, the inhibition at 0.1 µM in assay [4] was 71%.

For the compound `Cc1cccc(C(Cc2c[nH]cn2)c2ccccc2)c1` (centres unmarked) [Compound 9, 4(5)-{[2-(3-methylphenyl)-2-phenyl]ethyl}imidazole], the responders at 10 mg/kg in assay [1] is 20%. The “% Inhibition of the Specific Binding” value in assay [2] turned out to be 4%. Besides, in assay [3], the EC50 was 2510 nM and the Kb was 15.8 nM. For the same compound, in assay [4], the inhibition at 0.1 µM turned out to be 85% and the “affinity for α2 receptors (in words)” value is “high affinity”.

On to `Fc1ccc(C(Cc2c[nH]cn2)c2ccccc2F)cc1` (centres unmarked) [Compound 15, 4(5)-{[2-(2-fluorophenyl)-2-(4'-fluorophenyl)]ethyl}imidazole], for which, in assay [1], the responders at 10 mg/kg stood at 0%. Further, in assay [2], the “% Inhibition of the Specific Binding” value was found to be 7%. For the same compound, in assay [3], the EC50 is 5010 nM and the Kb is 15.8 nM. Moreover, the inhibition at 0.1 µM in assay [4] stood at 77%.

For the compound `Cc1ccc(C(Cc2c[nH]cn2)c2ccccc2)cc1` (centres unmarked) [Compound 21], the responders at 10 mg/kg in assay [1] stood at 50%. Also, the “% Inhibition of the Specific Binding” value in assay [2] came to 4%. For the same compound, in assay [3], the EC50 is 5010 nM and the Kb was 25.1 nM. Further, the inhibition at 0.1 µM in assay [4] is 74%.

Take `Fc1ccc(C(Cc2c[nH]cn2)c2ccccc2)cc1` (centres unmarked) [Compound 14, 4(5)-{[2-(4-fluorophenyl)-2-phenyl]ethyl}imidazole]: the responders at 10 mg/kg in assay [1] was determined as 0%. Besides, the “% Inhibition of the Specific Binding” value in assay [2] is given as 0%. Also, in assay [3], the EC50 is 6310 nM and the Kb was 15.8 nM. Also, the inhibition at 0.1 µM in assay [4] was 69%.

As for `c1ccc(C(Cc2c[nH]cn2)c2ccccc2)cc1` [Compound 1, 4(5)-(2,2-diphenylethyl)-imidazole], the responders at 10 mg/kg in assay [1] worked out at 0%. For the same compound, the “% Inhibition of the Specific Binding” value in assay [2] was 17%. Further, in assay [3], the EC50 was 3160 nM and the Kb was 5.01 nM. In assay [4], the inhibition at 0.1 µM came out at 89% and the “affinity for α2 receptors (in words)” value was “high affinity”.

On to `Clc1ccccc1C(Cc1c[nH]cn1)c1ccccc1` (centres unmarked) [Compound 13, 4(5)-{[2-(2-chlorophenyl)-2-phenyl]ethyl}imidazole], for which the responders at 10 mg/kg in assay [1] was determined as 20%. Further, the “% Inhibition of the Specific Binding” value in assay [2] is 7%. For the same compound, in assay [3], the EC50 was 3160 nM and the Kb was 10 nM. Also, in assay [4], the inhibition at 0.1 µM is 81% and the “affinity for α2 receptors (in words)” value is on record as “high affinity”.

For the compound `Cc1ccc(C)c(C(Cc2c[nH]cn2)c2ccccc2)c1` (centres unmarked) [Compound 16], the responders at 10 mg/kg in assay [1] turned out to be 20%. Further, in assay [2], the “% Inhibition of the Specific Binding” value was 0%. In addition, in assay [3], the EC50 is 2000 nM and the Kb was 100 nM. The inhibition at 0.1 µM in assay [4] was found to be 31%.

For the compound `COc1ccc(C(Cc2c[nH]cn2)c2ccccc2)cc1` (centres unmarked) [Compound 17, 4(5)-{[2-(4-methoxyphenyl)-2-phenyl]ethyl}imidazole], in assay [1], the responders at 10 mg/kg is 10%. In assay [2], the “% Inhibition of the Specific Binding” value came to 6%. Also, in assay [3], the EC50 is 10000 nM and the Kb was 12.6 nM. Further, the inhibition at 0.1 µM in assay [4] was determined as 78%.

One may read the inhibition as how much of the control response was suppressed.
